In patent publication US20230391845A1, “GLP-1, GIP AND GLUCAGON RECEPTOR TRIPLE AGONISTS” (priority 2020, published 2023):
Entries after “also recorded” stand apart in the source; their conditions may differ. *1 amine or outer side, *2 acyl side, *3 side chain or, on linkers, in order; H or OH if unused. Where a SMILES comes first, the peptide text is derived from it. Side-chain parts run from the residue outwards. [ ]: non-standard residue; d: D form. The star is where a group is joined. C20 diacid = O=C(O)CCCCCCCCCCCCCCCCCCC(=O)*; γGlu = O=C(O)[C@H](CCC(=O)[*:2])N[*:1]; εLys = N[C@@H](CCCCN[*:1])C(=O)[*:2]; AEEA = NCCOCCOCC(=O)O; Aib = CC(C)(N)C(=O)O

Legend:
human GLP-1 receptor = target: T1, human GLP-1 receptor (Homo sapiens, UniProt P43220); experiment: In vitro functional potency (CRE luciferase; whole cells), human GLP-1R; format: cell-based
T1 construct: expressed in transfected cells; host or cells: BHK cells (parent line BHKTS13) containing CRE luciferase
T1 sequence (P43220 24-463): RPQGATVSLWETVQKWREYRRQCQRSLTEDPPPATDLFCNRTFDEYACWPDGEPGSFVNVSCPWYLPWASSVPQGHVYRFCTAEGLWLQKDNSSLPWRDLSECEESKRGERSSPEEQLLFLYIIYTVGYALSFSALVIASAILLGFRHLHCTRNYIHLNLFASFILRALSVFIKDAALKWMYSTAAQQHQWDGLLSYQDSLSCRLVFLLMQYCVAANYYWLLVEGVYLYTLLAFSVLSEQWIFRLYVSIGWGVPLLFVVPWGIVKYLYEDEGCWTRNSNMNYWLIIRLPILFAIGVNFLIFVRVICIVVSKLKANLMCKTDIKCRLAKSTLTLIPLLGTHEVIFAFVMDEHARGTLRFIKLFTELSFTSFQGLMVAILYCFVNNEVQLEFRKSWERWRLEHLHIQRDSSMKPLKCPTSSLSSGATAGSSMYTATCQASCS

[1] = Pharmacokinetic study in minipigs, i.v. administration; parameters: species or system Göttingen minipigs; settings: female, Göttingen, minipig, in vivo, iv; minipigs, i.v. administration, harmonic mean; read-out: Terminal half-life t1/2 (converted)
How it was run: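 Terminal half-life, reported as harmonic mean, came from non-compartmental fits of plasma levels measured by antibody assay or LCMS over up to 14 days. Dosing was i.v., typically 1.5-2 nmol/kg, through implanted caval catheters in fasted female Göttingen minipigs of 16-35 kg.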

[2] = Pharmacodynamic study in DIO mice, daily s.c. dosing over 13 days (body weight, food intake); format: in vivo, C57BL/6J male mice; settings: for Absolute BW (grams) Day 0: Day 0 (baseline); for Cumulative food intake (grams) Day 13: mean ± SEM, n = 2; for reduction in body weight (in words) / reduction in food intake (in words): daily s.c. dosing over 13 days, compared to vehicle
Method: (§1) The purpose of this example is to assess the in vivo effect of selected triple agonists on pharmacodynamic parameters in diet-induced obese (DIO) mice. The animals were treated once daily via subcutaneous injection with a liquid formulation of the triple agonist to be tested to assess effects on body weight, foot intake, and glucose tolerance.
(§2) C57BL/6J male mice were purchased from Jackson Laboratories at approximately 8 weeks of age. Mice were group housed and fed a high-fat, high-sugar diet from Research Diets (D12331). Mice were maintained on this diet for 12 weeks prior to initializing the pharmacology studies. Mice exceeding a measured body weight of 50 grams were considered diet-induced obese (DIO) and included in pharmacology studies. Mice were exposed to a controlled 12 h:12 h light:dark cycle at ambient room temperature (22° C.) with ab libitum access to food and water. Studies were approved by and performed according to the guidelines of the Institutional Animal Care and Use Committee of the University of Cincinnati.
(§3) All compounds in the study were formulated in the following buffer: 50 mM phosphate; 70 mM sodium chloride; 0.05% Tween-80, pH 7.4. Dosing solutions were formulated in glass vials and stored at 2-8° C. Dosing solutions were brought to room temperature before dosing and returned to 2-8° C. after dosing.
(§4) The animals were grouped to receive treatment as follows: Vehicle or GLP-1/GIP/Gcg receptor triple agonists as described herein, where vehicle is 50 mM phosphate, 70 mM sodium chloride; 0.05% (v/v) Tween-80, pH 7.4. The test compounds were dissolved in the vehicle, to stock concentrations of […], then diluted 50- to 200-fold in the vehicle to achieve the desired dosing solution concentrations. Animals were dosed subcutaneously once daily in the morning for each day of treatment with dosing solution at a volume of 2-5 μL per gram of body weight as necessary to achieve the desired dose (e.g. 0.3 nmol/kg, 1.0 nmol/kg, or 3.0 nmol/kg).
Body weight (BW) and food intake were measured immediately prior to dosing each day. The percent change in body was calculated individually for each mouse based on initial body weight prior to the first injection.

[3] = IPGTT (intraperitoneal glucose tolerance test) in DIO mice; format: in vivo, C57BL/6J male mice; settings: for iAUC, IPGTT (min*mg/dL) Day 14: i.p. glucose 2 g/kg, baseline subtracted AUC
Method: as §1, §2, §3
as §4, with “DIO mice were distributed into groups (n=8 per group) such that statistical variations in the mean and standard deviations of fat mass and body weight were minimized between groups. The animals” for “The animals”
On the day of the glucose tolerance test, animals were fasted for 4 h. Food was removed and animals were transferred to fresh cages. Animals had access to water but not to food. Tail blood glucose levels were measured, and mice were injected (t=0) with an intraperitoneal (i.p.) glucose load of 2 g/kg (200 mg/ml glucose solution, dose volume 10 ml/kg). Tail blood glucose levels were measured at times 0, 15, 30, 60, 90, 120 minutes following the i.p. glucose load. Stratification of the animals during the IPGTT was such that for example two mice from group 1 are dosed followed by two mice from group 2, 3, 4, before the next two mice from group 1, 2, 3 etc. were handled. This was to allow for equal distribution of “time of day” throughout all groups.

Compound | EC50 (human GLP-1 receptor) [pM] | half-life [1] [days] | Absolute BW (grams) Day 0 ([2]; 1.0 nmol/kg group) [grams] | Absolute BW (grams) Day 13 ([2]; 1.0 nmol/kg s.c. once daily) [grams] | Change in BW (%) Day 13 ([2]; 1.0 nmol/kg s.c. once daily) [%] | Cumulative food intake (grams) Day 13 ([2]; 1.0 nmol/kg s.c. once daily) [grams] | reduction in body weight (in words) [2] | reduction in food intake (in words) [2] | iAUC, IPGTT (min*mg/dL) Day 14 ([3]; 1.0 nmol/kg s.c. once daily) [mg·min/dL] | Absolute BW (grams) Day 0 ([2]; 0.3 nmol/kg group) [grams] | Absolute BW (grams) Day 13 ([2]; 0.3 nmol/kg s.c. once daily) [grams] | Change in BW (%) Day 13 ([2]; 0.3 nmol/kg s.c. once daily) [%] | Cumulative food intake (grams) Day 13 ([2]; 0.3 nmol/kg s.c. once daily) [grams] | Absolute BW (grams) Day 0 ([2]; 3.0 nmol/kg group) [grams] | Absolute BW (grams) Day 13 ([2]; 3.0 nmol/kg s.c. once daily) [grams] | Change in BW (%) Day 13 ([2]; 3.0 nmol/kg s.c. once daily) [%] | Cumulative food intake (grams) Day 13 ([2]; 3.0 nmol/kg s.c. once daily) [grams] | iAUC, IPGTT (min*mg/dL) Day 14 ([3]; 0.3 nmol/kg s.c. once daily) [mg·min/dL] | glucose tolerance compared to vehicle (in words) ([3]; 1.0 nmol/kg and 3.0 nmol/kg doses) | iAUC, IPGTT (min*mg/dL) Day 14 ([3]; 3.0 nmol/kg s.c. once daily) [mg·min/dL]
CC(C)C[C@H](NC(=O)[C@H](CC(C)C)NC(=O)[C@H](Cc1c[nH]c2ccccc12)NC(=O)[C@H](CCC(N)=O)NC(=O)[C@@H](NC(=O)[C@H](Cc1ccccc1)NC(=O)[C@H](CCC(=O)O)NC(=O)C(C)(C)NC(=O)[C@H](C)NC(=O)[C@H](C)NC(=O)[C@H](CCC(N)=O)NC(=O)[C@H](CCCCNC(=O)[C@@H](N)CCCCNC(=O)[C@@H](N)CCCCNC(=O)CC[C@H](NC(=O)CCCCCCCCCCCCCCCCCCC(=O)O)C(=O)O)NC(=O)[C@H](CCC(=O)O)NC(=O)[C@H](CC(C)C)NC(=O)[C@H](Cc1ccc(O)cc1)NC(=O)[C@H](Cc1ccc(O)cc1)NC(=O)[C@H](CO)NC(=O)[C@H](Cc1ccc(O)cc1)NC(=O)[C@H](CC(=O)O)NC(=O)[C@H](CO)NC(=O)[C@@H](NC(=O)[C@H](Cc1ccccc1)NC(=O)[C@@H](NC(=O)CNC(=O)[C@H](Cc1c[nH]cn1)NC(=O)C(C)(C)NC(=O)[C@@H](N)Cc1c[nH]cn1)[C@@H](C)O)[C@@H](C)O)C(C)C)C(=O)N[C@@H](CCC(=O)O)C(=O)NCC(=O)NCC(=O)N1CCC[C@H]1C(=O)N[C@@H](CO)C(=O)N[C@@H](CO)C(=O)NCC(=O)N[C@@H](C)C(=O)N1CCC[C@H]1C(=O)N1CCC[C@H]1C(=O)N1CCC[C@H]1C(=O)N[C@@H](CO)C(N)=O [Compound No. 26] (H-H[Aib]HGTFTSDYSYYLEK([εLys-εLys-γGlu-C20 diacid])QAA[Aib]EFVQWLLEGGPSSGAPPPS-NH2; N-terminus assumed) | 3.1 | 3.33 | 60.7 ± 1.9 | 51.6 ± 2.2 | −15.6 ± 0.9 | 20.1 ± 3.4 | superior reduction | superior reduction | 8789 ± 1521 | – | – | – | – | – | – | – | – | – | – | –
CC[C@H](C)[C@H](NC(=O)[C@H](CO)NC(=O)[C@H](Cc1ccc(O)cc1)NC(=O)[C@H](CC(=O)O)NC(=O)[C@H](CO)NC(=O)[C@@H](NC(=O)[C@H](Cc1ccccc1)NC(=O)[C@@H](NC(=O)CNC(=O)[C@H](Cc1c[nH]cn1)NC(=O)C(C)(C)NC(=O)[C@@H](N)Cc1c[nH]cn1)[C@@H](C)O)[C@@H](C)O)C(=O)N[C@@H](Cc1ccc(O)cc1)C(=O)N[C@@H](CC(C)C)C(=O)N[C@@H](CCC(=O)O)C(=O)N[C@@H](CCCCNC(=O)COCCOCCNC(=O)COCCOCCNC(=O)CC[C@H](NC(=O)CCCCCCCCCCCCCCCCCCC(=O)O)C(=O)O)C(=O)N[C@@H](CCC(N)=O)C(=O)N[C@@H](C)C(=O)N[C@@H](C)C(=O)NC(C)(C)C(=O)N[C@@H](CCC(=O)O)C(=O)N[C@@H](Cc1ccccc1)C(=O)N[C@H](C(=O)N[C@@H](CCC(N)=O)C(=O)N[C@@H](Cc1c[nH]c2ccccc12)C(=O)N[C@@H](CC(C)C)C(=O)N[C@@H](CC(C)C)C(=O)N[C@@H](CCC(=O)O)C(=O)NCC(=O)NCC(=O)N1CCC[C@H]1C(=O)N[C@@H](CO)C(=O)N[C@@H](CO)C(=O)NCC(=O)N[C@@H](C)C(=O)N1CCC[C@H]1C(=O)N1CCC[C@H]1C(=O)N1CCC[C@H]1C(=O)N[C@@H](CO)C(N)=O)C(C)C [Compound No. 44] (H-H[Aib]HGTFTSDYSIYLEK([AEEA-AEEA-γGlu-C20 diacid])QAA[Aib]EFVQWLLEGGPSSGAPPPS-NH2; N-terminus assumed) | 1.8 | – | 60.8 ± 1.1 | 52.7 ± 1.3 | −13.4 ± 0.9 | 24.8 ± 1.8 | superior reduction; also recorded: dose-dependent effect | superior reduction; also recorded: dose-dependent effect | 14606 ± 2410 | 59.2 ± 1.2 | 56.9 ± 1.5 | −3.9 ± 1.1 | 28.0 ± 0.6 | 60.6 ± 1.1 | 43.1 ± 1.8 | −29.1 ± 2.3 | 12.4 ± 1.5 | 25356 ± 4338 | improved glucose tolerance | 15161 ± 2257
